Experimental data reported in ChEMBL document CHEMBL1157539, “Thousands of chemical starting points for antimalarial lead identification” (Nature, 2010).
Residues, ends and D or L forms follow the SMILES beside them. *: point of attachment. Boc = CC(C)(C)OC(=O)*

Tested on: Plasmodium falciparum
Assay: GSK_TCMDC: Inhibition of Plasmodium falciparum 3D7 in whole erythrocytes, using parasite LDH activity as an index of growth.
Assay type: functional, organism-based
Conditions: Plasmodium falciparum, 3D7

SMILES: CCC(C)c1cnc2nc(N)nc(N)c2c1C (centres undefined)
- XC50: 444 nM

SMILES: CCCN(CCC)C(C)CCC(C)Nc1c2ccc(Cl)cc2nc2ccc(OC)cc12 (centres undefined)
- XC50: 70.8 nM

SMILES: CC(C)n1ncc2c(C(=O)N3CCCC4CCCCC43)cc(C3CC3)nc21 (centres undefined)
- XC50: 676 nM

SMILES: O=C(Nc1ccc(Cl)cc1)c1ccc(CN2CCCN(Cc3ccc(F)cc3)CC2)cc1
- XC50: 966 nM

SMILES: CCOC(=O)C(NC(=O)c1ccc([N+](=O)[O-])o1)C(C)C (centres undefined)
- XC50: 1060 nM

SMILES: Fc1cccc(C=NNc2ccnc3cc(Cl)ccc23)c1
- XC50: 528 nM

SMILES: NCc1cccc(-c2ccc3ccnc(N)c3c2)c1
- XC50: 168 nM

SMILES: CCOc1cc(C(=O)NCCN(C(C)C)C(C)C)ccc1-c1nc2cc(Cl)ccc2[nH]1
- XC50: 778 nM

SMILES: CCCC(CNCc1ccc(Cl)c(C(F)(F)F)c1)CNc1nc2cnccc2[nH]1 (centres undefined)
- XC50: 291 nM

SMILES: CN(Cc1cc(C(F)(F)F)cc(C(F)(F)F)c1)C(=O)C1CNCC1c1ccc(F)cc1 (centres undefined)
- XC50: 828 nM

SMILES: Cn1c(=O)n(C)c2cc(CNCCNc3ccnc4cc(Cl)ccc34)ccc21
- XC50: 140 nM

SMILES: COc1ccc(S(=O)(=O)N(CC(=O)NN=C(C)c2cccs2)c2cc(C)cc(C)c2)cc1OC
- XC50: 141 nM

SMILES: CCCCNCC(O)COc1ccccc1-c1ccc(N/N=C/c2cccc3ccccc23)nn1 (centres undefined)
- XC50: 891 nM

SMILES: COc1ccc2c(N/N=C/c3ccccc3[N+](=O)[O-])ccnc2c1
- XC50: 739 nM

SMILES: N#Cc1ccc(CN2CCC(Oc3ccc(NC(=O)c4cccs4)cc3)CC2)cc1
- XC50: 1030 nM

SMILES: O=C(CC(=O)C(F)(F)F)c1ccccc1[N+](=O)[O-]
- XC50: 3.2 nM

SMILES: CC(C)C[C@@H](/C=N/N1CCNC1=O)NC(=O)[C@H](CC(C)C)NC(=O)c1ccc(OCCN2CCOCC2)cc1
- XC50: 190 nM

SMILES: Cc1cc(-c2cccc(CNCCc3ccc(Cl)cc3)c2)cnc1N
- XC50: 1100 nM

SMILES: Cc1cc(=NN=Cc2ccccc2F)c2cccc(C)c2[nH]1
- XC50: 764 nM

SMILES: COC(=O)CC[C@H](NC(=O)[C@H](C)NC(=O)OC(C)(C)C)C(=O)OC (Boc-Ala-Glu(OMe)-OMe)
- XC50: 819 nM

SMILES: COc1ccccc1CN1CCC(CNC(=O)c2cc(-c3ccc(N(C)C)cc3)cs2)C1 (centres undefined)
- XC50: 1270 nM

SMILES: COc1ccc(CCN2CC[C@H](Nc3nc(-c4ccc(F)c(F)c4)nc4ccccc34)C2)cc1S(N)(=O)=O
- XC50: 789 nM

SMILES: O=C(/C=C/c1ccc(Cl)c(Cl)c1)NC1CCC(CN2CCC(c3coc4ccccc34)CC2)CC1 (centres undefined)
- XC50: 826 nM

SMILES: CC(C)C[C@@H](/C=N/N1CCOC1=O)NC(=O)[C@H](CC(C)C)NC(=O)c1ccc(F)cc1
- XC50: 1170 nM

SMILES: Clc1ccc(-c2cc(-c3csc(Nc4ccncc4)n3)on2)cc1
- XC50: 133 nM

SMILES: CCNC[C@@H](O)[C@H](Cc1ccccc1)NC(=O)c1cc2c3c(c1)c(CC)cn3CCS(=O)(=O)N2C
- XC50: 810 nM

SMILES: COc1cccc(Nc2nnc(SCC(=O)NNC(=O)c3ccccn3)s2)c1
- XC50: 380 nM

SMILES: CC(=O)Nc1ccc(CCNC(C)Cc2ccc(C(=O)Nc3ccc(CC(C)NCCc4cccc(Cl)c4)cc3)cc2)cc1 (centres undefined)
- XC50: 330 nM

SMILES: COc1ccc(S(=O)(=O)Nc2cc(Br)cc3c2OCCC3)cc1N1CCN(C(=O)C(Cl)(Cl)Cl)CC1
- XC50: 871 nM

SMILES: CCN(CC)CCN(Cc1ccc(-c2ccc(C(F)(F)F)cc2)cc1)C(=O)Cn1c(CCc2cccc(F)c2F)nc(=O)c2ccc(C(F)(F)F)cc21
- XC50: 783 nM

SMILES: COc1cccc(CN2CCCN(Cc3cccc(NC(=O)c4cc5ccccc5s4)c3)CC2)c1
- XC50: 1010 nM

SMILES: CN1CCC(NCc2cccc(-c3ccc(S(=O)(=O)NCCN4CCCC4)s3)c2)CC1
- XC50: 928 nM

SMILES: CN(C)CCOc1ccc(-c2cc(-c3ccnc(N)n3)c(-c3ccc(Cl)c(O)c3)o2)cc1
- XC50: 978 nM

SMILES: CC(C)CNCc1cccc(-c2ccc(CNc3ccc(C(=O)c4ccccc4)cc3)cc2)c1
- XC50: 760 nM

SMILES: CN(C)c1ccc2c(c1)Sc1cc(N(C)C)ccc1N2C(=O)CCCC(=O)O
- XC50: 802 nM

SMILES: O=C(/C=C/c1ccc(Cl)c(Cl)c1)NCCCCCN1CCN(C(=O)Nc2ccc(Cl)c(C(F)(F)F)c2)CC1
- XC50: 816 nM

SMILES: COc1cccc(-c2nn(C)c3sc(C(=O)NCCN4CCN(c5ccccc5F)CC4)cc23)c1
- XC50: 955 nM

SMILES: CC1(C)Cc2c([nH]c3ccccc23)C(CCCCCCCCC2=NC(C)(C)Cc3c2[nH]c2ccccc32)=N1
- XC50: 933 nM

SMILES: COc1cc(C)nc2ccc(NC(=O)Nc3ccc([N+](=O)[O-])cc3C)cc12
- XC50: 602 nM

SMILES: O=C(/C=C/c1ccc(C(F)(F)F)cc1)NCCCCCN1CCCN(C(=O)Nc2ccc(F)c(Cl)c2)CC1
- XC50: 368 nM

SMILES: c1ccc2[nH]c(-c3ccc(-c4ccc(CNC5CC5)cc4)s3)nc2c1
- XC50: 1050 nM

SMILES: CCCCCCCCCCS(=O)(=O)N[C@H](COCc1cccc(Oc2ccccc2)c1)COP(=O)(O)OC
- XC50: 1020 nM

SMILES: Cc1cccc2nc(-c3cccc(-c4ccc(C(=O)N5CCCCC5C(C)O)cc4)c3)[nH]c12 (centres undefined)
- XC50: 371 nM

SMILES: FC(F)(F)c1cccc(CNCC2CCN(CC3CCCCC3)CC2)c1
- XC50: 402 nM

SMILES: CCN(CC)CCN(Cc1ccc(-c2ccc(C(F)(F)F)cc2)cc1)C(=O)Cn1c(CCc2cccc(F)c2F)cc(=O)c2c1CCCC2
- XC50: 866 nM

SMILES: O=C(Nc1ccc(OC2CCN(Cc3ccc(F)cc3)C2)c(Cl)c1)c1ccoc1 (centres undefined)
- XC50: 938 nM

SMILES: CCOc1cc(C(=O)NCCCN2CCCCC2C)ccc1-c1nc2cc(Cl)ccc2[nH]1 (centres undefined)
- XC50: 1070 nM

SMILES: Cc1cc(N[C@@H](Cc2ccccc2)C(=O)NCc2cccc(F)c2)nc(NCCc2ccccc2)n1
- XC50: 1020 nM

SMILES: CC(C)COc1ccc(Cl)cc1Cc1nc(-c2nc3ccc(CN4CCCC4)cc3[nH]2)co1
- XC50: 727 nM

SMILES: CCOC(=O)CN(c1ccc(Br)cc1OCCOc1cc(Br)ccc1N(CC(=O)OCC)C(C)C(=O)OCC)C(C)C(=O)OCC (centres undefined)
- XC50: 806 nM

SMILES: Oc1ccc(CCNc2nc(NCCCOc3ccccc3-c3ccc(F)cc3)nc(N3CCNCC3)n2)cc1
- XC50: 1080 nM

SMILES: Cc1cc(C(F)(F)F)n2nc(C(=O)N(Cc3cncn3Cc3ccccc3F)CC3CC3)cc2n1
- XC50: 956 nM

SMILES: CCC[C@@H]([C@@H](CC1CCCCC1)C(=O)N[C@@H](CCOC(=O)NCC)C(=O)Nc1nccs1)N(O)C=O
- XC50: 81.8 nM

SMILES: COc1ccc(OC)c(C=NNc2nc3ccccc3[nH]2)c1
- XC50: 729 nM

SMILES: CC(C)(C)c1cc(C(=O)N2CCN(c3ncccc3C(F)(F)F)CC2)n(Cc2ccccc2)n1
- XC50: 251 nM

SMILES: Fc1ccc2ncc(Cl)c(CCN3CCC(NCc4cc5c(cn4)OCCO5)CC3)c2c1
- XC50: 884 nM

SMILES: Cc1ccc(-c2nc(N3CCN(C(=O)c4ccco4)CC3)c3ccc(Cl)cc3n2)cc1
- XC50: 1210 nM

SMILES: O=C(Cc1ccccc1)NC(Nc1ccc([N+](=O)[O-])cc1)C(Cl)(Cl)Cl (centres undefined)
- XC50: 973 nM

SMILES: CC(C)(C)c1ccc2[nH]c(-c3ccc(C(=O)NCc4cccc(C(F)(F)F)c4)cc3)nc2c1
- XC50: 733 nM

SMILES: COc1ccccc1C1CCN(C2CCC(NC(=O)/C=C/c3cccc(C(F)(F)F)c3)CC2)CC1 (centres undefined)
- XC50: 806 nM

SMILES: Cc1cccc2c(/C=C/C(=O)NC3CCC(CCN4CCc5ccc(C#N)cc5CC4)CC3)c[nH]c12 (centres undefined)
- XC50: 1220 nM

SMILES: Cc1cc(Nc2c(C(N)=O)cnc3cc(-c4ccoc4)ccc23)ccc1N1CCN(C)CC1
- XC50: 797 nM

SMILES: CC1CN(C(=O)c2sc3ccccc3c2Cl)CC(C)O1 (centres undefined)
- XC50: 87.9 nM

SMILES: COc1ccc(Oc2ccc(-c3c(C)[nH]c(C)c(Cl)c3=O)cc2)cc1
- XC50: 135 nM

SMILES: CC(C)Nc1nc(NCCc2c[nH]cn2)nc(NCc2ccc(Cl)c(Cl)c2)n1
- XC50: 962 nM

SMILES: Fc1ccc(-c2cncc(-c3ccc(F)cc3)n2)cc1
- XC50: 639 nM

SMILES: CO/C(=C\C=C\c1cc2cc(Cl)c(Cl)cc2[nH]1)C(=O)NCCCN1CCN(Cc2ccccc2)CC1
- XC50: 912 nM

SMILES: CCN(CC)CCN(Cc1ccc(-c2ccc(C(F)(F)F)cc2)cc1)C(=O)Cn1c(CCc2cccc(F)c2F)nc(=O)c2ccccc21
- XC50: 671 nM

SMILES: N#Cc1ccc2c(c1)CCN(CCC1CCC(NC(=O)/C=C/c3ccc(F)c4ccccc34)CC1)CC2 (centres undefined)
- XC50: 844 nM
